From patent publication US8455528B2, “Imidazole derivatives useful as inhibitors of FAAH” (Merck Sharp & Dohme Corp., priority 2008, dated 2013)
pIC50: −log10 of the molar value.

Biological target: T1, Human FAAH (Homo sapiens, UniProt O00519)
T1 construct: The full length FAAH was subcloned into the mammalian expression vector, pcDEF.neo; expressed in transfected cells
T1 sequence (O00519 1-579): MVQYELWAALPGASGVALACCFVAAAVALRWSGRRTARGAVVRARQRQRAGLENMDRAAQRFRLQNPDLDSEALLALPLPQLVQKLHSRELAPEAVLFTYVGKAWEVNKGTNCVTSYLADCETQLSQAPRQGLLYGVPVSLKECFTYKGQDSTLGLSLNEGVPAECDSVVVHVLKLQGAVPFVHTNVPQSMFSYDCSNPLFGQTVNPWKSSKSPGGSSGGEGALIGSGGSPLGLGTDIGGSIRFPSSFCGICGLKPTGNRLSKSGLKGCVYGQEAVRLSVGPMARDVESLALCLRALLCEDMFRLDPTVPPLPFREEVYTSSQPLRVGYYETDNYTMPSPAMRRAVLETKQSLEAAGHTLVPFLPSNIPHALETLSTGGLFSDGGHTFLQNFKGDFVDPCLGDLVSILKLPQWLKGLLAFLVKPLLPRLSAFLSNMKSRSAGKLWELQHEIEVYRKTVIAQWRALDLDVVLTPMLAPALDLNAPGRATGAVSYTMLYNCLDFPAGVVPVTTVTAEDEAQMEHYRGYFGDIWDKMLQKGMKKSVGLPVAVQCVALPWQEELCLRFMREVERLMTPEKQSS
Test: Human FAAH lysate assay (CHO cell lysate, AAMCA fluorescent substrate)
Assay type: biochemical
Conditions: FAAH inhibition, CHO cell lysate expressing human FAAH; read-out: Human Lysate
Excerpt: To assist in assay development stable cell lines for human, murine and rat full length FAAH were developed. Human FAAH cDNA (Accession No: NM-001441.1) was purchased from Origene (Rockville, Md.). The full length FAAH was subcloned into the mammalian expression vector, pcDEF.neo, using XbaI and EcoRI restriction sites and used for stable cell line generation. CHO cells expressing FAAH were used to prepare either crude cell lysate or microsome fractions. To harvest cells, tissue culture media was decanted, the monolayer washed three times with Ca^++Mg^++ free PBS and cells recovered after 15 min in enzyme free dissociation media (Millipore Corp, Billerica, Mass.). Cells were collected by centrifuging at 2000 rpm for 15 min. and the cell pellet re-suspended with 50 mM HEPES (pH 7.4) containing 1 mM EDTA and the protease inhibitors aprotinin (1 mg/ml) and leupeptin (100 μM). […] The pellet containing FAAH-enriched microsomes was re-suspend in 50 mM HEPES, (pH 7,4) 1 mM EDTA, and any remaining DNA sheared by passage of material through a 23 gauge needle and aliquots of enzyme were store at -80° C. prior to use. […] (American Radiolabeled Chemicals; 1 mCi/ml) with FAAH (Life Sciences (1995), 56, 1999-2005 and Journal of Pharmacology and Experimented Therapeutics (1997), 283, 729-734), Analytical. Biochemistry (2003), 318, 270-5. […] Analytical. Biochemistry (2005). 343, 143-51 […] Fluorescent release as a measure of FAAH activity was monitored by reading the plate in a CytoFluor Multiplate Reader ([…]). Whole cell assay is conducted with cells harvested after rinsing tissue culture flasks three times with Ca^++Mg^++ free PBS, incubating for 10 min in Enzyme free dissociation media and centrifuging for 5 minutes at 1,000 rpm in table top centrifuge. Cells are resuspended in assay buffer at desired cell number in (4×10^4 cells/assay in 96-well format; 1×10^4 cells/assay in 384-well format) and assayed as described. […] The reaction was terminated by addition of 2 volumes of chloroform:methanol (1:1) and mixed by vortexing. […] K., et al. A fluorescence-based assay for fatty acid amide hydrolase compatible with high-throughput screening. Anal. Biochem. 343:143-51 (2005) • Wilson S. J., et l. A high-throughput-compatible assay for determining the activity of fatty acid amide hydrolase. Anal Biochem. 318:270-5 (2003).

Cn1cnc(-c2ccc(C#N)cc2)c1Sc1ccc(Cl)cc1 [Ex 33, 4-{5-[(4-chlorophenyl)thio]-1-methyl-1H-imidazol-4-yl}benzonitrile] was tested. Which pIC50 did it give?
Its pIC50 is 6.44.

How did the pIC50 turn out when Cn1c(-c2ccccn2)nc(-c2ccc(N)cc2)c1Sc1ccc(Cl)cc1 [Ex 98, 4-{5-[(4-Chlorophenyl)thio]-1-methyl-2-pyridin-2-yl-1H-imidazol-4-yl}aniline] was run?
The pIC50 was 7.47.

Cn1c(-c2ccccc2)nc(-c2ccc(C#N)cc2)c1Sc1ccc(Cl)cc1 [Ex 2, 4-{5-[(4-Chlorophenyl)thio]-1-methyl-2-phenyl-1H-imidazol-4-yl}benzonitrile] was tested. Which pIC50 did it give?
The pIC50 was 7.67.

CC(C)c1nc(-c2ccc(S(C)(=O)=O)cc2)c(Sc2ccc(Cl)cc2)n1C [Ex 29, 5-[(4-Chlorophenyl)thio]-2-isopropyl-1-methyl-4-[4-(methylsulfonyl)phenyl]-1H-imidazole] was tested. Which pIC50 did it give?
Its pIC50 is 7.13.

CS(=O)(=O)c1ccc(-c2nc(C3CCC3)[nH]c2Sc2ccc(Cl)cc2)cc1 [Ex 13] was tested. Which pIC50 did it give?
Its pIC50 is 6.02.

Cn1c(C2CCC2)nc(-c2ccc(S(C)(=O)=O)cc2)c1Sc1ccc(Cl)cc1 [Ex 14] was tested. Which pIC50 did it give?
The pIC50 was 7.58.

With Cn1c(-c2ccccn2)nc(-c2ccc(-n3ccnn3)cc2)c1Sc1ccc(Cl)cc1 [Ex 66] as the compound, how does the pIC50 read?
The pIC50 was 7.78.

Cn1c(-c2ccccn2)nc(-c2ccc(C(O)C(F)F)cc2)c1Sc1ccc(Cl)cc1 (stereo not drawn) [Ex 57, 1-(4-{5-[(4-Chlorophenyl)thio]-1-methyl-2-pyridin-2-yl-1H-imidazol-4-yl}phenyl)-2,2-difluoroethanol] was tested. Which pIC50 did it give?
Its pIC50 is 7.67.

Cn1c(-c2ccccn2)nc(-c2ccc(-c3nnco3)cc2)c1Sc1ccc(Cl)cn1 [Ex 36, 5-Chloro-2-({1-methyl-4-[4-(1,3,4-oxadiazol-2-yl)phenyl]-2-pyridin-2-yl-1H-imidazol-5-yl}thio)pyridine] was tested. Which pIC50 did it give?
The pIC50 was 7.57.
